Reference: ChEMBL document CHEMBL1201862, “PubChem BioAssay data set” (2004)
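These data come from cells grown in 96-well plates and exposed to compound for 48 hours at five concentrations. Here, GI50 denotes the concentration required for 50% inhibition of growth.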 Activity calls are given as the source filed them. Rule as the data show it: active = GI50 up to about 1.1 µM and inactive = higher.

Experiments:
Assay in all cases: growth of human tumour cells (NCI), 48 h
HCT-15 = tested on: HCT-15
MOLT-4 = tested on: MOLT-4
SF-539 = tested on: SF-539
MDA-MB-231 = tested on: MDA-MB-231
EKVX = tested on: EKVX
SK-MEL-28 = tested on: SK-MEL-28
NCI-H226 = tested on: NCI-H226
UACC-257 = tested on: UACC-257
IGROV-1 = tested on: IGROV-1
MDA-MB-435 = tested on: MDA-MB-435
HOP-92 = tested on: HOP-92
HL-60 = tested on: HL-60
U-251 = tested on: U-251
Hs-578T = tested on: Hs-578T
BT-549 = tested on: BT-549
A498 = tested on: A498
PC-3 = tested on: PC-3
RXF 393 = tested on: RXF 393
MCF7 = tested on: MCF7
NCI-H522 = tested on: NCI-H522
MDA-N = tested on: MDA-N
HCT-116 = tested on: HCT-116
SNB-75 = tested on: SNB-75
LOX IMVI = tested on: LOX IMVI
SK-OV-3 = tested on: SK-OV-3
SNB-19 = tested on: SNB-19
ACHN = tested on: ACHN
HT-29 = tested on: HT-29
A549 = tested on: A549
COLO 205 = tested on: COLO 205
SN12C = tested on: SN12C
KM12 = tested on: KM12
NCI-H460 = tested on: NCI-H460
SW-620 = tested on: SW-620
T47D = tested on: T47D
TK-10 = tested on: TK-10
HCC 2998 = tested on: HCC 2998
OVCAR-4 = tested on: OVCAR-4
NCI/ADR-RES = tested on: NCI/ADR-RES
SK-MEL-2 = tested on: SK-MEL-2
OVCAR-8 = tested on: OVCAR-8
CCRF-CEM = tested on: CCRF-CEM
CAKI-1 = tested on: CAKI-1
OVCAR-5 = tested on: OVCAR-5
HOP-62 = tested on: HOP-62
K562 = tested on: K562
786-0 = tested on: 786-0
UACC-62 = tested on: UACC-62
OVCAR-3 = tested on: OVCAR-3
SF-295 = tested on: SF-295
M14 = tested on: M14
RPMI-8226 = tested on: RPMI-8226
NCI-H23 = tested on: NCI-H23
DU-145 = tested on: DU-145
SF-268 = tested on: SF-268
Malme-3M = tested on: Malme-3M
SK-MEL-5 = tested on: SK-MEL-5
SR = tested on: SR
UO-31 = tested on: UO-31

Which results are given for COc1ccc(/C=C/c2nccc3ccccc23)cc1OC?
GI50 (HCT-15): > 10 µM; GI50 (MOLT-4): 4.52 µM (inactive); GI50 (SF-539): > 10 µM (inactive); GI50 (MDA-MB-231): 2.77 µM (inactive); GI50 (EKVX): > 10 µM (inactive); GI50 (SK-MEL-28): > 10 µM (inactive); GI50 (NCI-H226): > 10 µM (inactive); GI50 (UACC-257): > 10 µM (inactive); GI50 (IGROV-1): > 10 µM (inactive); GI50 (MDA-MB-435): 6.64 µM (inactive); GI50 (HOP-92): 6.17 µM (inactive); GI50 (HL-60): > 10 µM (inactive); GI50 (U-251): > 10 µM (inactive); GI50 (Hs-578T): > 10 µM (inactive); GI50 (BT-549): > 10 µM (inactive); GI50 (A498): 9.73 µM (inactive); GI50 (PC-3): > 10 µM (inactive); GI50 (RXF 393): > 10 µM (inactive); GI50 (MCF7): 2.43 µM (inactive); GI50 (NCI-H522): > 10 µM (inactive); GI50 (MDA-N): > 10 µM (inactive); GI50 (HCT-116): 5.9 µM (inactive); GI50 (SNB-75): > 10 µM (inactive); GI50 (LOX IMVI): 4.57 µM (inactive); GI50 (SK-OV-3): > 10 µM (inactive); GI50 (SNB-19): > 10 µM (inactive); GI50 (ACHN): > 10 µM (inactive); GI50 (HT-29): 4.05 µM (inactive); GI50 (A549): > 10 µM (inactive); GI50 (COLO 205): > 10 µM (inactive); GI50 (SN12C): 9.48 µM (inactive); GI50 (KM12): 8.13 µM (inactive); GI50 (NCI-H460): > 10 µM (inactive); GI50 (SW-620): > 10 µM (inactive); GI50 (T47D): > 10 µM (inactive); GI50 (TK-10): > 10 µM (inactive); GI50 (HCC 2998): > 10 µM (inactive); GI50 (OVCAR-4): > 10 µM (inactive); GI50 (NCI/ADR-RES): 9.38 µM (inactive); GI50 (SK-MEL-2): > 10 µM (inactive); GI50 (OVCAR-8): > 10 µM (inactive); GI50 (CCRF-CEM): 6.52 µM (inactive); GI50 (CAKI-1): > 10 µM (inactive); GI50 (OVCAR-5): > 10 µM (inactive); GI50 (HOP-62): > 10 µM (inactive); GI50 (K562): 5.5 µM (inactive); GI50 (786-0): > 10 µM (inactive); GI50 (UACC-62): > 10 µM (inactive); GI50 (OVCAR-3): 9.2 µM (inactive); GI50 (SF-295): > 10 µM (inactive); GI50 (M14): > 10 µM (inactive); GI50 (RPMI-8226): 5.98 µM (inactive); GI50 (NCI-H23): 7.21 µM (inactive); GI50 (DU-145): > 10 µM (inactive); GI50 (SF-268): > 10 µM (inactive); GI50 (Malme-3M): > 10 µM (inactive); GI50 (SK-MEL-5): 6.21 µM (inactive)

Which results are given for Cc1cc(C)c2c(=O)n(CC(O)CN(Cc3ccccc3)CC(O)Cn3sc4nc(C)cc(C)c4c3=O)sc2n1 (stereo not given)?
GI50 (SR): 8.99 µM (inactive); GI50 (HCT-15): 17.3 µM; GI50 (MOLT-4): 3.25 µM (inactive); GI50 (SF-539): 17.7 µM (inactive); GI50 (MDA-MB-231): 17.7 µM (inactive); GI50 (EKVX): 22.2 µM (inactive); GI50 (SK-MEL-28): 27.8 µM (inactive); GI50 (NCI-H226): 18.5 µM (inactive); GI50 (UACC-257): 17.2 µM (inactive); GI50 (IGROV-1): 17.7 µM (inactive); GI50 (MDA-MB-435): 17 µM (inactive); GI50 (HOP-92): 17.2 µM (inactive); GI50 (HL-60): 33.2 µM (inactive); GI50 (U-251): 16.9 µM (inactive); GI50 (Hs-578T): 18.9 µM (inactive); GI50 (BT-549): 23.7 µM (inactive); GI50 (PC-3): 16.8 µM (inactive); GI50 (RXF 393): 18.8 µM (inactive); GI50 (MCF7): 17.6 µM (inactive); GI50 (NCI-H522): 10 µM (inactive); GI50 (MDA-N): 17.9 µM (inactive); GI50 (HCT-116): 17.3 µM (inactive); GI50 (SNB-75): 15.5 µM (inactive); GI50 (LOX IMVI): 19.2 µM (inactive); GI50 (SK-OV-3): 23.2 µM (inactive); GI50 (SNB-19): 18.5 µM (inactive); GI50 (ACHN): 16.5 µM (inactive); GI50 (HT-29): 19.6 µM (inactive); GI50 (A549): 19.9 µM (inactive); GI50 (COLO 205): 7.73 µM (inactive); GI50 (SN12C): 18.1 µM (inactive); GI50 (KM12): 17.2 µM (inactive); GI50 (NCI-H460): 19.7 µM (inactive); GI50 (SW-620): 32 µM (inactive); GI50 (T47D): 18.2 µM (inactive); GI50 (TK-10): 17.4 µM (inactive); GI50 (HCC 2998): 18.8 µM (inactive); GI50 (OVCAR-4): 18.1 µM (inactive); GI50 (NCI/ADR-RES): 22.4 µM (inactive); GI50 (SK-MEL-2): 17.7 µM (inactive); GI50 (UO-31): 17 µM (inactive); GI50 (OVCAR-8): 18.9 µM (inactive); GI50 (CCRF-CEM): 6.05 µM (inactive); GI50 (CAKI-1): 18.8 µM (inactive); GI50 (OVCAR-5): 20.1 µM (inactive); GI50 (HOP-62): 14.4 µM (inactive); GI50 (K562): 24.2 µM (inactive); GI50 (786-0): 14.6 µM (inactive); GI50 (UACC-62): 16.9 µM (inactive); GI50 (OVCAR-3): 16.2 µM (inactive); GI50 (SF-295): 22.1 µM (inactive); GI50 (M14): 17.4 µM (inactive); GI50 (RPMI-8226): 3.61 µM (inactive); GI50 (NCI-H23): 18 µM (inactive); GI50 (DU-145): 17.9 µM (inactive); GI50 (SF-268): 17.1 µM (inactive); GI50 (Malme-3M): 14.3 µM (inactive); GI50 (SK-MEL-5): 16.4 µM (inactive)
